# Data: patent US6893821B2, “Agents that modulate DNA-PK activity and methods of use thereof” (The Regents of the University of California, priority 2000, dated 2005)
# What was measured:
# [1] = system: bone marrow derived macrophages (BMDM); test: Northern blot of IL-6 and IL-12 mRNA in BMDM; format: cell-based, mice
# Procedure: PCR were performed under the following conditions by appropriate cycling number (94° C. for 30 seconds; 65° C. for 30 seconds; and 68° C. for 30 seconds). PCR products were visualized by electrophoresis on 1.5% TAE agarose gels after being stained with ethidium bromide. BMDM isolated from either wild type or Ku 70^−/− mice were treated with ISS (10 μg/ml) or LPS (10 μg/ml) or left untreated for 6.5 hours. Total RNA was isolated and 10 μg of total RNA was separated on 1% agarose gel and then transferred onto a nylon membrane. The membrane was probed with [^32P]-labeled IL-6 or IL-12 or GAPDH cDNA followed by autoradiography, as described previously. Chu et al. (1999) Immunity 11:1.
# BMDM (2.5×10^5/well) from wt, or Ku70^−/− and Ku80^−/− mice were treated with LPS (1 μg/ml), ISS-ODN (5 μg/ml) or M-ODN (5 μg/ml) for 24 hours. IL-6 (A) or IL-12 (B) levels in the supernatants were determined by ELISA. Results are means±S.D, of 5 separate experiments for wt and Ku70^−/− and 3 separate experiments for Ku80^−/− mice. (C) BMDM were incubated with LPS (10 μg/ml) or ISS-ODN (5 μg/ml) for 6.5 hours. Total RNA was isolated and analyzed for the presence of IL-6, IL-12 and GAPDH messages by a Northern blot assay, as described in Example 1. Results are means±S.D. of 5 separate experiments for wt and Ku70^−/− and 3 separate experiments for Ku80^−/− mice. […]
# [2] = system: bone marrow derived macrophages (BMDM); conditions: Martin-Orozco et al. (1999); cited from earlier work
substance,measurement,setting,value
5′-TGACTGTGAACGTTCGAGATGA-3′ [ISS-ODN],induction of IL-6 and IL-12 mRNAs,[1]; DNA-PKcs-deficient BMDM,Little induction
same,induction of IL-6 and IL-12 mRNA (Northern blot),"[1]; Ku70-/- or Ku80-/- BMDM, 6.5 hours",lack of induction
same,IL-6 and IL-12 secretion,[2],high levels
